Assays:
[1] = system: skin; experiment: Skin exfoliation via D-Squame discs and image analysis; assay type: in vivo, human; conditions: tested previously in a base, activity over the placebo, 1.0% active in formula
Text: The subjects included in this study were 120 females between the ages of 21 and 65 years, all meeting the screening criteria of good health and not being pregnant or lactating. The subjects reported for testing without moisturizers or any other products on their hands and baseline measurements were taken. They were randomly assigned to one of the following eight treatment groups. They were given the product to take home and self-administer to their right hand only, twice a day in the morning after washing and in the evening at least 15 minutes before bedtime for four weeks. The left hand served as the untreated control site. The subjects were only allowed to use the test product and specifically log its use in a daily diary provided. At the end of two and four weeks the subjects returned for testing without applying the product for at least 12 hours and they were re-evaluated under the same conditions. Skin Exfoliation via D-Squame Discs Method and Image Analysis Four D-Squame discs were firmly and evenly pressed on the face and the back of each hand with a hand held uniform pressure device and removed by gently pulling away from the skin. The D-Squame discs were mounted on clear microscope slides and labeled according to panelist name and visit. Desquamation was evaluated from the D-Squame discs via the image analyzer. Skin evaluation was carried out before treatment, and after two and four weeks of treatment. The OPTIMA image analyzer was used to evaluate skin flakiness. The D-Squame samples containing the stratum corneocytes are placed under a camera on top of a light table and each image is imported into the image analyzer. The average Gray Value corresponding to the sample density is measured. The denser the sample the higher the Gray value difference. Skin exfoliation was evaluated by measuring the amount of flakes removed from the skin surface using D-Squame discs and analyzing them via the IA method. In this study several ferment combinations of N-Acetyl D-Glucosamine and Mannose 6-Phosphate vs. the placebo, the broth and the ferment as controls, for their effect on skin desquamation. […] Another series of tests were conducted as described above. The concentration of N-acetyl D-glucosamine and mannose 6-phosphate was reduced by 10 fold without compromising their activity. Table 4 below summarizes the actual active concentrations used with a brief description along with their activity.

[2] = system: UV induced peroxidation of lipids; experiment: inhibition of UV induced peroxidation of lipids (liposomal assay, Pelle et al.); assay type: biochemical
Text: Caffeine was subjected to bioconversion at concentration as indicated(w/v) in water or in a mixture of structured waters (I/S 60/40).
P. ulei is an equatorial plant known to have anti-inflammatory properties. A. purchyriminor is an equatorial plant containing inhibitors of PAF (Platelet Activating Factor). […] The untreated extracts at a concentration 1% each, are combined and diluted to 0.1% each and subjected to bioconversion.

| Compound | Decrease in Flakiness 2 wk [1] [%] | Decrease in Flakiness 4 wk [1] [%] | Inhibition of lipid peroxidation ([2]; Caffeine Concentration 0.05%) [%] | Inhibition of lipid peroxidation ([2]; Caffeine Concentration 0.25%) [%] | Inhibition of lipid peroxidation ([2]; Caffeine Concentration 0.5%) [%] | further results |
| --- | --- | --- | --- | --- | --- | --- |
| O=C[C@@H](O)[C@@H](O)[C@H](O)[C@H](O)COP(=O)(O)O [1% Mannose 6-Phosphate, Mannose 6-Phosphate] | 22 | 29 |  |  |  |  |
| CC(=O)N[C@H]1C(O)O[C@H](CO)[C@@H](O)[C@@H]1O (stereo partly shown) [1% N-Acetyl Glucosamine, N-Acetyl Glucosamine] | 16 | 27 |  |  |  |  |
| Cn1c(=O)c2c(ncn2C)n(C)c1=O [Caffeine Non bioconverted H2O, Caffeine] |  |  | 30 | 54 | 66 |  |
| Cn1c(=O)c2c(ncn2C)n(C)c1=O [Caffeine Non bioconverted I/S water, Caffeine] |  |  | 24 | 58 | 66 |  |
| Oc1ccc(C=Cc2cc(O)cc(O)c2)cc1 [Resveratrol Nonbioconverted, Resveratrol] |  |  |  |  |  | Anti-oxidant activity ([2]; Concentration of Resveratrol in S water 0.05%): 1.8%; Anti-oxidant activity ([2]; Concentration of Resveratrol in S water 0.25%): 8%; Anti-oxidant activity ([2]; Concentration of Resveratrol in S water 0.5%): 39% |
